Measurements as given in US7741521B2, “Inhibition of bid-induced cell-death using small organic molecules” (The Burnham Institute, priority 2004, dated 2010).

Experiments:
Assay type in all cases: cell-based
[1] = tested on: rat embryonic cortical neurons; assay: Nuclear translocation of AIF in neurons exposed to glutamate; conditions: glutamate 20 μM, 8 h
Description: Neuronal cell death was quantified after staining the nuclei with the DNA-binding fluorochrome Hoechst 33258 (Molecular Probes) or by the MTT assay. Immunocytochemistry was performed as described in the art, with a polyclonal anti-AIF antibody (sc-9416, Santa Cruz; 1:200) followed by incubation a biotinylated anti-goat IgG antibody (1:200) Vector Laboratories) and Oregon Green-streptavidin (Molecular Probes). After counterstaining with Hoechst 33342 images were acquired using a confocal laser scanning microscope (Axiovert, Zeiss) with a 60× oil immersion objective (514-nm excitation and 535-nm emission for detection of Oregon Green and 352-nm excitation and 460-nm emission for detection of Hoechst 33342).
Pretreatment with Compound I preserves nuclear morphology (blue fluorescence, Hoechst 33342) and prevents AIF translocation. […] Mean values and SD of 4 dishes per group are presented.

[2] = tested on: HeLa cells transfected with a plasmid encoding tBID; assay: Effector caspase activity in lysates of tBID-transfected cells
Description: (§1) HEK 293T cells were transfected with 0.5 μg of plasmids encoding either GFP or GFP-tBID in 12 wells plate. After 3 hours transfection, various compounds were added in DMSO to the media. After 20 hours of further incubation, cells were collected and either lysed for caspase assays or fixed and stained with DAPI for determination of apoptosis^50. For caspase activity assays, 293T cells were lysed in lysis buffer (10 mM Hepes, pH 7.4, 142.2 mM KCl, 5 mM MgCl2, 0.5 mM EDTD, 0.5% NP-40) containing a protease inhibitor mixture (Roche Molecular Biochemicals). The lysates were normalized for protein concentration (10 μg), then incubated with 100 μM DEVD-AFC. Enzyme activity was determined by the release of AFC-fluorescence and Vmax was calculated (mean±Std. dev; n=3). For DAPI staining, 293T cells were fixed, washed with PBS, and stained with 0.1 mg/ml DAPI. The percentage of GFP-positive cells with apoptotic morphology (fragment nuclei or condensed chromatin) was determined (mean±Std. dev; n=3).
(§2) Compound II was also evaluated for its ability to inhibit BID-induced apoptosis in cell; for these experiments, HeLa cells were transfected with a plasmid encoding tBID, and effector caspase activity was measured in cell lysates 24 hours later. […] Moreover, tBID-induced cell death, as measured by caspase-3 activity, was reduced from 80±5% to 35±5% by 50 µM of compound II (FIG. 6E). […]

[3] = tested on: HeLa cells transfected with a plasmid encoding tBID; assay: tBID-induced cell death in transfected cells; conditions: 50 µM; without compound 80±5%
Description: as §1, §2

Compound	nuclear translocation of AIF [1]	reduction of caspase-3 activity in tBID-transfected cells ([2]; 50 µM, 24 hours after transfection) [fold]	caspase activity in tBID-transfected cells ([2]; 100 µM)	tBID-induced cell death [3] [%]
Nc1ccc(Sc2ccc(NC(=O)CNC(=O)c3ccc(O)cc3O)cc2)cc1 [Compound I, N-((4-(4-aminophenylthio)phenylcarbamoyl)methyl)-2,4-dihydroxybenzamide]	prevented	–	–	–
COc1ccc(S(=O)(=O)NCCCC(=O)Nc2ccc(Sc3ccc(N)cc3)cc2)cc1 [Compound II, N-[4-(4-amino-phenylsulfanyl)-phenyl]-4-(4-methoxy-benzenesulfonylamino)-butyramide]	–	~4	totally blocked	35±5
